From patent EP1142583A1, “ANTITUMOR AGENTS” (TEIKOKU HORMONE MFG. CO., LTD., priority 1999, dated 2000) come the findings set out here.

Where two headings read alike, the source gives them in different places.

The test system of this data set is WiDr cells. Description: Cell death rate by flow cytometry (PI DNA content, EPICS XL). The conditions noted are these: for Cell death rate (%): WiDr cells. The data set is classed as cell-based, human. How it is done:
DMEM medium containing 10% fetal bovine serum was placed in plastic culture dishes having a diameter of 6 cm. Then, WiDr cells (obtained from HSRRB), which were human colon carcinoma cells, were inoculated thereinto so as to give a density of 2.0 x 10^5 cells/3 mL. These culture dishes were incubated at 37°C for 48 hours. Moreover, 1/1000 volume of PD98059 (with a final concentration of 50 µmol/L) or solvent (DMSO) was added thereto, followed by incubation for 12 hours. Thereafter, 1/1000 volume of TZT-1027 (with a final concentration of 10 nmol/L) or solvent (a lactic acid buffer) was added thereto. Where vincristine was used as the microtubule-interfering agent, 1/1000 volume of vincristine sulfate (with a final concentration of 100 nmol/L) or solvent (DMSO) was added thereto. Twenty-four (24), 48, 72 or 96 hours after the addition of TZT-1027, vincristine or solvent, cells were collected and worked up according to the following procedure. With respect to a solvent control group and a group treated with PD98059 alone, cells were similarly collected and worked up after 96 hours' incubation.
First of all, all of the culture medium was transferred to a centrifuge tube. The remaining cells were suspended by adding 1 mL of a 0.05% trypsin/phosphate-buffered physiological saline (PBS)-EDTA solution to the culture dish and incubating it at 37°C for 5 minutes, and combined with the above culture medium. The centrifuge tube was centrifuged at 1,500 rpm for 5 minutes. Then, the precipitate was resuspended in 1 mL of PBS, transferred to a light-shielding microtube, and centrifuged at 2,500 rpm for 5 minutes. After the precipitate was suspended in 60 µL of PBS, 140 µL of 100% ethanol was added thereto and the resulting suspension was stirred and allowed to stand at -20°C overnight or longer. Moreover, the suspension was centrifuged at 2,500 rpm for 5 minutes, and 100 µL of a phosphate-citric acid buffer (0.2M […] : 0.1M citric acid = 24:1) was added to the precipitate, followed by stirring (at 500 rpm) at room temperature for 30 minutes. After suspension was centrifuged at 2,500 rpm for 5 minutes, 100 µL of PBS and 1 µL of an RNase solution (10 mg/mL (PBS); obtained from SIGMA) was added to the precipitate, followed by incubation at 37°C for 30 minutes. Thereafter, 880 µL of PBS and 20 µL of a propidium iodide (hereinafter referred to as "PI") solution (1 mg/mL (PBS); obtained from Wako Pure Chemical Industries Ltd.) were added thereto and reacted at room temperature for 30 minutes with stirring. The resulting reaction mixture was allowed to stand in the dark under cooling with ice until it was used for measurement.
The cell death rate was measured and analyzed by means of an EPICS XL system (manufactured by COULTER). Prior to analysis, the EPICS XL system was checked by means of DNAcheck (manufactured by COULTER).
Next, a protocol used for calculating the cell death rate by using the DNA content as a parameter was constructed. In this protocol, FS (forward scatter), SS (side scatter) and FL3 (PI fluorescence) were selected as parameters, and the number of analyzed cells was 30,000. Furthermore, by measuring a control sample of cells to be actually measured, the sensitivity of the detector and regions were preset with consideration for each parameter. Measurements were made by pipetting a sample at several times, transferring it into an exclusive tube, and setting it in the main unit of the EPICS XL system. The cell death rate was calculated by use of histograms in the protocol, which were constructed by removing doublets and triplets from data incorporating dead cells.
(In general: In flow cytometry, cells or beads pass a laser one at a time.)

Where [1] appears, read: Homo sapiens, WiDr, 96 h, read-out: Cell death rate (%).
Setting [2] is: Homo sapiens, WiDr, 24 h, read-out: Cell death rate (%).
The mark [3] stands for this setting: Homo sapiens, WiDr, 48 h, read-out: Cell death rate (%).

As to `COc1cccc(-c2cc(=O)c3ccccc3o2)c1N` [PD98059, 2-(2-amino-3-methoxyphenyl)-4H-chromen-4-one], the cytotoxicity at 50 µM under setting [1] amounted to 8.9%.
Turning to `CC[C@H](C)[C@@H]([C@@H](CC(=O)N1CCC[C@H]1[C@H](OC)[C@@H](C)C(=O)NCCc1ccccc1)OC)N(C)C(=O)[C@@H](NC(=O)[C@H](C(C)C)N(C)C)C(C)C` [TZT-1027, N^2-(N,N-Dimethyl-L-valyl)-N-[(1S,2R)-2-methoxy-4-[(2S)-2-[(1R,2R)-1-methoxy-2-methyl-3-oxo-3-[(2-phenylethyl)-amino]propyl]-1-pyrrolidinyl]-1-[(S)-1-methylpropyl]-4-oxobutyl]-N-methyl-L-valinamide], the cytotoxicity at 0.01 µM by setting is: under setting [2], 3.8%; under setting [3], 9.2%; under setting [1], 23.3%. The “Cell death rate (%)” value is on record as 10.5% (TZT-1027 10 nmol/L combined with PD98059 50 µmol/L (added 12 hours before), time 24); 35.9% (TZT-1027 10 nmol/L combined with PD98059 50 µmol/L (added 12 hours before), time 48); 48.1% (TZT-1027 10 nmol/L combined with PD98059 50 µmol/L (added 12 hours before), time 96).
Consider `CC[C@]1(O)C[C@H]2CN(CCc3c([nH]c4ccccc34)[C@@](C(=O)OC)(c3cc4c(cc3OC)N(C=O)[C@H]3[C@@](O)(C(=O)OC)[C@H](OC(C)=O)[C@]5(CC)C=CCN6CC[C@]43[C@@H]65)C2)C1` [Vincristine, vincristine], for which the cytotoxicity at 0.1 µM came to 4.5% under setting [2]; 8.4% under setting [3]; 23.3% (Homo sapiens, WiDr, 72 h, read-out: Cell death rate (%)). Further, the “Cell death rate (%)” value (Vincristine 100 nmol/L combined with PD98059 50 µmol/L (added 12 hours before), time 24) is 12.1%; the “Cell death rate (%)” value (Vincristine 100 nmol/L combined with PD98059 50 µmol/L (added 12 hours before), time 48) is listed as 37.4%; the “Cell death rate (%)” value (Vincristine 100 nmol/L combined with PD98059 50 µmol/L (added 12 hours before), time 72) worked out at 58.7%.
